Patent US8759011B2, “Assay system for determining binding of hydrophobic drugs” (Nederlandse Organisatie voor …, priority 2009, dated 2014)

Tested on: human plasma
Assay: plasma binding by partition extraction in dimethylsiloxane-coated 96-well plates
Format: in vitro ADME
Settings: one plate
Procedure: 96-wells deepwell plates (lot 1450-401 Perkin-Elmer Lifesciences) were coated with dimethylsiloxane by making the solutions A-H here below in n-hexane. The used dimethylsiloxane (Silicone rubber, GE Silicones, Bergen op Zoom, The Netherlands) has a density of 1.06. Solution H contains 9.54 g dimethylsiloxane in 300 ml n-hexane.
From solutions A-H 100 μl is pipetted in row A-H of each plate. Plates were dried to air for minimally 18 hours (overnight).
To each dilution of plasma (solutions 1-12) an identical amount of the compound to be tested is added (about […]/200 μl solution). […] The solutions are incubated with the compound overnight at 4°.
The plasma solutions 1-12 are added to corresponding columns 1-12 of each plate (200 μl/well). Also 200 μl was added to a separate vessel to be able to correct for (plasma concentration dependent) solubilization. The next day the plates are emptied, washed once with aqua bidest and dried. When sufficient dry in all wells 200 μl counting solution (Optiphase Hisafe 2, Perkin Elmer Lifesciences) is added and the plates are covered. After incubation for minimally 4 hours under gently shaking the radioactivity in each plate is determined using liquid scintillation counting with a MicroBeta device (Perkin Elmer).
Additionally a total count was determined for each well. The total count is the count in the polymer coating+the count in the remaining fluid. The latter was determined by isolating 25 μl from solution in each well prior to emptying, and mixing with Optiphase (Perkin Elmer) followed by liquid scintillation counting.
1. For each datapoint for which the total count was determined, the recovery of total radioactivity was determined by comparing with the counts of the reference spiking solution. Cells with a total recovery <75% were excluded from further data analysis.
2. From all rows containing polymer, the a-specific binding, i.e. the corresponding counts from the row without polymer, was substracted.
3. Curve fitting was applied using the following formula for each cell:
Predicted counts in coating=Tc/((1/ffp+1/fp−1)×(fp×Vw)/Kpdms/Vp)), where
The above formula was fitted using ffp and Kpdms target parameters to be optimized using the least squares regression method over all wells that were included in the data analysis, by calculating the squared difference between the measured counts in the coating and the predicted counts in the coating. Results

## CC(C)c1nc(CN(C)C(=O)N[C@H](C(=O)N[C@@H](Cc2ccccc2)C[C@H](O)[C@H](Cc2ccccc2)NC(=O)OCc2cncs2)C(C)C)cs1 [Ritonavir]
Plasma 0 ml/ml, coating 0 nl
  counts in the polymer coating: 2561
Plasma 0 ml/ml, coating 4.1 nl
  counts in the polymer coating: 3274
Plasma 0 ml/ml, coating 10.2 nl
  counts in the polymer coating: 4727
Plasma 0 ml/ml, coating 25.6 nl
  counts in the polymer coating: 6222
Plasma 0 ml/ml, coating 64 nl
  counts in the polymer coating: 6561
Plasma 0 ml/ml, coating 160 nl
  counts in the polymer coating: 8997
Plasma 0 ml/ml, coating 400 nl
  counts in the polymer coating: 9656
Plasma 0 ml/ml, coating 1000 nl
  counts in the polymer coating: 10194
Plasma 0.0005 ml/ml, coating 0 nl
  counts in the polymer coating: 408
Plasma 0.0005 ml/ml, coating 4.1 nl
  counts in the polymer coating: 3323
Plasma 0.0005 ml/ml, coating 10.2 nl
  counts in the polymer coating: 5936
Plasma 0.0005 ml/ml, coating 25.6 nl
  counts in the polymer coating: 9146
Plasma 0.0005 ml/ml, coating 64 nl
  counts in the polymer coating: 14297
Plasma 0.0005 ml/ml, coating 160 nl
  counts in the polymer coating: 16590
Plasma 0.0005 ml/ml, coating 400 nl
  counts in the polymer coating: 17305
Plasma 0.0005 ml/ml, coating 1000 nl
  counts in the polymer coating: 17396
Plasma 0.0008 ml/ml, coating 0 nl
  counts in the polymer coating: 355
Plasma 0.0008 ml/ml, coating 4.1 nl
  counts in the polymer coating: 3033
Plasma 0.0008 ml/ml, coating 10.2 nl
  counts in the polymer coating: 6243
Plasma 0.0008 ml/ml, coating 25.6 nl
  counts in the polymer coating: 9649
Plasma 0.0008 ml/ml, coating 64 nl
  counts in the polymer coating: 15214
Plasma 0.0008 ml/ml, coating 160 nl
  counts in the polymer coating: 17344
Plasma 0.0008 ml/ml, coating 400 nl
  counts in the polymer coating: 18129
Plasma 0.0008 ml/ml, coating 1000 nl
  counts in the polymer coating: 18254
Plasma 0.001 ml/ml, coating 0 nl
  counts in the polymer coating: 368
Plasma 0.001 ml/ml, coating 4.1 nl
  counts in the polymer coating: 2677
Plasma 0.001 ml/ml, coating 10.2 nl
  counts in the polymer coating: 6668
Plasma 0.001 ml/ml, coating 25.6 nl
  counts in the polymer coating: 10037
Plasma 0.001 ml/ml, coating 64 nl
  counts in the polymer coating: 15293
Plasma 0.001 ml/ml, coating 160 nl
  counts in the polymer coating: 17749
Plasma 0.001 ml/ml, coating 400 nl
  counts in the polymer coating: 18063
Plasma 0.001 ml/ml, coating 1000 nl
  counts in the polymer coating: 18984
Plasma 0.003 ml/ml, coating 0 nl
  counts in the polymer coating: 250
Plasma 0.003 ml/ml, coating 4.1 nl
  counts in the polymer coating: 2391
Plasma 0.003 ml/ml, coating 10.2 nl
  counts in the polymer coating: 6779
Plasma 0.003 ml/ml, coating 25.6 nl
  counts in the polymer coating: 9818
Plasma 0.003 ml/ml, coating 64 nl
  counts in the polymer coating: 15161
Plasma 0.003 ml/ml, coating 160 nl
  counts in the polymer coating: 18112
Plasma 0.003 ml/ml, coating 400 nl
  counts in the polymer coating: 19067
Plasma 0.003 ml/ml, coating 1000 nl
  counts in the polymer coating: 19314
Plasma 0.005 ml/ml, coating 0 nl
  counts in the polymer coating: 266
Plasma 0.005 ml/ml, coating 4.1 nl
  counts in the polymer coating: 2725
Plasma 0.005 ml/ml, coating 10.2 nl
  counts in the polymer coating: 7054
Plasma 0.005 ml/ml, coating 25.6 nl
  counts in the polymer coating: 10234
Plasma 0.005 ml/ml, coating 64 nl
  counts in the polymer coating: 15908
Plasma 0.005 ml/ml, coating 160 nl
  counts in the polymer coating: 18628
Plasma 0.005 ml/ml, coating 400 nl
  counts in the polymer coating: 19174
Plasma 0.005 ml/ml, coating 1000 nl
  counts in the polymer coating: 19676
Plasma 0.008 ml/ml, coating 0 nl
  counts in the polymer coating: 262
Plasma 0.008 ml/ml, coating 4.1 nl
  counts in the polymer coating: 2605
Plasma 0.008 ml/ml, coating 10.2 nl
  counts in the polymer coating: 5943
Plasma 0.008 ml/ml, coating 25.6 nl
  counts in the polymer coating: 9899
Plasma 0.008 ml/ml, coating 64 nl
  counts in the polymer coating: 15892
Plasma 0.008 ml/ml, coating 160 nl
  counts in the polymer coating: 18582
Plasma 0.008 ml/ml, coating 400 nl
  counts in the polymer coating: 19405
Plasma 0.008 ml/ml, coating 1000 nl
  counts in the polymer coating: 19541
Plasma 0.01 ml/ml, coating 0 nl
  counts in the polymer coating: 260
Plasma 0.01 ml/ml, coating 4.1 nl
  counts in the polymer coating: 2644
Plasma 0.01 ml/ml, coating 10.2 nl
  counts in the polymer coating: 6466
Plasma 0.01 ml/ml, coating 25.6 nl
  counts in the polymer coating: 9247
Plasma 0.01 ml/ml, coating 64 nl
  counts in the polymer coating: 15112
Plasma 0.01 ml/ml, coating 160 nl
  counts in the polymer coating: 18647
Plasma 0.01 ml/ml, coating 400 nl
  counts in the polymer coating: 19137
Plasma 0.01 ml/ml, coating 1000 nl
  counts in the polymer coating: 19454
Plasma 0.02 ml/ml, coating 0 nl
  counts in the polymer coating: 208
Plasma 0.02 ml/ml, coating 4.1 nl
  counts in the polymer coating: 2135
Plasma 0.02 ml/ml, coating 10.2 nl
  counts in the polymer coating: 5288
Plasma 0.02 ml/ml, coating 25.6 nl
  counts in the polymer coating: 8673
Plasma 0.02 ml/ml, coating 64 nl
  counts in the polymer coating: 14665
Plasma 0.02 ml/ml, coating 160 nl
  counts in the polymer coating: 18017
Plasma 0.02 ml/ml, coating 400 nl
  counts in the polymer coating: 19188
Plasma 0.02 ml/ml, coating 1000 nl
  counts in the polymer coating: 19218
Plasma 0.03 ml/ml, coating 0 nl
  counts in the polymer coating: 195
Plasma 0.03 ml/ml, coating 4.1 nl
  counts in the polymer coating: 1925
Plasma 0.03 ml/ml, coating 10.2 nl
  counts in the polymer coating: 4066
Plasma 0.03 ml/ml, coating 25.6 nl
  counts in the polymer coating: 6969
Plasma 0.03 ml/ml, coating 64 nl
  counts in the polymer coating: 13475
Plasma 0.03 ml/ml, coating 160 nl
  counts in the polymer coating: 17384
Plasma 0.03 ml/ml, coating 400 nl
  counts in the polymer coating: 18707
Plasma 0.03 ml/ml, coating 1000 nl
  counts in the polymer coating: 19112
Plasma 0.04 ml/ml, coating 0 nl
  counts in the polymer coating: 156
Plasma 0.04 ml/ml, coating 4.1 nl
  counts in the polymer coating: 1501
Plasma 0.04 ml/ml, coating 10.2 nl
  counts in the polymer coating: 3633
Plasma 0.04 ml/ml, coating 25.6 nl
  counts in the polymer coating: 5932
Plasma 0.04 ml/ml, coating 64 nl
  counts in the polymer coating: 12160
Plasma 0.04 ml/ml, coating 160 nl
  counts in the polymer coating: 16322
Plasma 0.04 ml/ml, coating 400 nl
  counts in the polymer coating: 18174
Plasma 0.04 ml/ml, coating 1000 nl
  counts in the polymer coating: 18716
Plasma 0.05 ml/ml, coating 0 nl
  counts in the polymer coating: 124
Plasma 0.05 ml/ml, coating 4.1 nl
  counts in the polymer coating: 1143
Plasma 0.05 ml/ml, coating 10.2 nl
  counts in the polymer coating: 2760
Plasma 0.05 ml/ml, coating 25.6 nl
  counts in the polymer coating: 5080
Plasma 0.05 ml/ml, coating 64 nl
  counts in the polymer coating: 10938
Plasma 0.05 ml/ml, coating 160 nl
  counts in the polymer coating: 16100
Plasma 0.05 ml/ml, coating 400 nl
  counts in the polymer coating: 17730
Plasma 0.05 ml/ml, coating 1000 nl
  counts in the polymer coating: 18325
